Patent US20040259815A1, “Anti-proliferative composition” (priority 2001, published 2004)

Tested on: human prostate cancer cell line PC3
Test: Proliferation of PC3 cells after 4 days exposure (BrdU incorporation and WST-1 assays)
Type: cell-based
Conditions: PC-3, 96 h, component alone, PC3 cells exposed for 4 days
Experimental: Stock solutions were prepared as follows: Genistein and silymarin were dissolved in ethanol. Daidzein and equol were dissolved in dimethyl sulfoxide (DMSO). Lycopene was dissolved in 0.02M HCl
The PC3 cell line (American Type Culture Collection, Mannassas, USA), a highly resistant prostate cancer cell line originating from a metastasis lesion of bone, was maintained as monolayer cultures in RPMI medium (Gibco, Life technologies BV, Breda, Netherlands) supplemented with 5% FCS (Gibco). The cells were grown mycoplasm free in plastic tissue culture flasks (Falcon, Micronic, Lelystad, Netherlands). Cultures were kept in a 5% CO2 humidified atmosphere, at a temperature of 37° C. Media were replaced every 2 or 3 days, and cells were subcultured at weekly intervals using a 0.05% trypsin and 0.01% EDTA.
The PC3 cells were seeded into flat-bottomed 96-well tissue culture treated plates (Falcon, Micronic, Lelystad, Netherlands) at a density of 16000 cells per well. After 24 h incubation, vehicle controls, test components or combinations of the test components were added to the medium (20 μl added to 200 μl medium in well). The components were tested in combination to determine additional or synergistic effects. PC3 cells were exposed for 4 days.
Cell proliferation was quantified by measuring the incorporation of 5-bromo-2′-deoxyuridine (BrdU) during DNA synthesis and by cleavage of tetrazolium salt (WST-1) in viable cells by mitochondrial dehydrogenases. The calorimetric BrdU (immunoassay) and colorimetric WST-1 assay were performed in accordance with the manufacturer's instructions (Roche Diagnostics Mannheim, Germany). Briefly, BrdU-assay: After the exposure period, the cells were treated with BrdU-labeling solution for 3 hours. After labeling, cells were washed with PBS, fixed for 30 minutes and washed again with PBS. After 90 minutes incubation with the anti-BrdU-POD working solution, the cells were washed 3 times. After addition of the substrate, the reaction was stopped with H2SO4. The absorbance was measured at 450 nm with a reference wavelength at 650 nm. WST-1 assay: After the exposure period, the cells were washed with PBS and treated with WST-1 diluted in medium (1:10). After 3 hours incubation, the absorbance was measured at 450 nm with a reference at 595 nm.

`O=c1c(-c2ccc(O)cc2)coc2cc(O)cc(O)c12` [Genistein, genistein] showed an inhibition at 27 µg/mL (27 μg/ml, read-out: inhibition of proliferation of human prostate cancer cell line PC3 (mean±s.e.)) of 20.2 ± 4.6%.
`O=c1c(-c2ccc(O)cc2)coc2cc(O)ccc12` [daidzein] was tested, and the inhibition at 25 µg/mL (25 μg/ml, stated as not significant, read-out: inhibition of growth of the PC3 cells) was 10 ± 6%.
In the case of `Oc1ccc([C@H]2COc3cc(O)ccc3C2)cc1` [equol], the inhibition at 26 µg/mL (26 μg/ml, read-out: inhibition of proliferation of human prostate cancer cell line PC3 (mean±s.e.)) is reported as 30.1 ± 4.4%.
With `CC(C)=CCC/C(C)=C/C=C/C(C)=C/C=C/C(C)=C/C=C/C=C(C)/C=C/C=C(C)/C=C/C=C(\C)CCC=C(C)C` [lycopene] the inhibition at 53 µg/mL (53 μg/ml, stated as not significant, read-out: inhibition of growth of the PC3 cells) was 7.3 ± 2.7%.
